pIC50: −log10 of the molar value. Structures can show the parent of a compound that is named as a salt.
system: voltage-dependent calcium channels (cerebral cortex synaptosome); assay: Measurement of voltage-dependent calcium channel activity by the use of a fluorescent pigment (fura 2); format: cell-based; conditions: rat cerebral cortex synaptosome, fura 2, KCl stimulation, compound incubated 10 minutes
Protocol: Measurement of Voltage-dependent Calcium Channel Activity by the use of a Fluorescent Pigment (fura 2)
Cerebral cortexes were removed from cut rat brains and disrupted roughly with scissors. These were introduced into a homogenizer, homogenized in 0.3 M saccharose and centrifuged at 4° C. (1,500 g×10 min). The resulting supernatant was further centrifuged at 4° C. (10,000 g×20 min). The resulting precipitates were suspended in 0.3 M saccharose. The suspension was layered on 0.8 M saccharose and centrifuged (10,000 g×30 min.).
4 μM fura 2/AM (Dojin Ltd.) was suspended in solution A to prepare a loading solution. To the synaptosome solution prepared in the method described above was added an equal volume of the loading solution, and the mixture was incubated for 40 minutes at room temperature.
As comparative and control compound, verapamil hydrochloride was used.

Going from `COc1ccc(CCN(C)CCCC(C#N)(c2ccc(OC)c(OC)c2)C(C)C)cc1OC` (stereo not drawn) [Control, verapamil hydrochloride, reference compound] to `COc1cccc(OCCN2CCN(CCCC(C#N)(c3ccccc3)C(C)C)CC2)c1OC` (stereo not drawn) [Example 40, 1-[(4-Cyano-5-methyl-4-phenyl)hexyl]-4-[2-(2,3-dimethoxyphenoxy)ethyl]piperazine], the pIC50 rises from < 4.80 to 5.00. The second is the more potent here.

First: CC(C)C(C#N)(CCCN1CCN(CCCOc2ccc(F)cc2)CC1)c1ccccc1 (stereo not drawn) [Example 2, 1-[(4-Cyano-5-methyl-4-phenyl)hexyl]-4-[3-(4-fluorophenoxy)propyl]piperazine]
Second: CC(C)C(C#N)(CCN1CCN(CCCOc2ccc(F)cc2)CC1)c1ccccc1 (stereo not drawn) [Example 5, 1-[(3-Cyano-4-methyl-3-phenyl)pentyl]-4-[3-(4-fluorophenoxy)propyl]piperazine]
The pIC50 of the first is 0.29 log units higher: 5.40 for the first, 5.11 for the second.

`CC(C)C(C#N)(CCCN1CCCN(CCOc2ccc(F)cc2)CC1)c1ccccc1` (stereo not drawn) [Example 3] and `CC(C)C(C#N)(CCN1CCCN(CCOc2ccc(F)cc2)CC1)c1ccccc1` (stereo not drawn) [Example 4, 1-[(3-Cyano-4-methyl-3-phenyl)pentyl]-4-[2-(4-fluorophenoxy)ethyl]homopiperazine] are within 0.2 log units of each other in pIC50: 5.32 for the first, 5.24 for the second.

Going from `CC(C)C(C#N)(CCCN1CCN(CCCCOc2ccccc2)CC1)c1ccccc1` (stereo not drawn) [Example 6, 1-[(4-Cyano-5-methyl-4-phenyl)hexyl]-4-(4-phenoxybutyl)piperazine] to `CC(C)C(C#N)(CCCN1CCN(CCOCc2ccccc2)CC1)c1ccccc1` (stereo not drawn) [Example 48, 1-[(4-Cyano-5-methyl-4-phenyl)hexyl]-4-[2-(benzyloxy)ethyl]piperazine], the pIC50 falls from 5.57 to 5.08 (0.49 log units).

Going from `CC(C)C(C#N)(CCCN1CCN(CCOc2ccc([N+](=O)[O-])cc2)CC1)c1ccccc1` (stereo not drawn) [Example 8, 1-[(4-Cyano-5-methyl-4-phenyl)hexyl]-4-[2-(4-nitrophenoxy)ethyl]piperazine] to `CC(C)C(C#N)(CCCN1CCN(CCOc2ccc(C#N)cc2)CC1)c1ccccc1` (stereo not drawn) [Example 47, 1-[(4-Cyano-5-methyl-4-phenyl)hexyl]-4-[2-(4-cyanophenoxy)ethyl]piperazine], the pIC50 falls from 5.38 to 4.89 (0.49 log units).

Going from `COC(=O)c1ccc(C(C#N)(CCCN2CCN(CCOc3ccc(F)cc3)CC2)C(C)C)cc1` (stereo not drawn) [Example 12, 1-[4-Cyano-5-methyl-4-(4-carbomethoxyphenyl)hexyl]-4-[2-(4-fluorophenoxy)ethyl]piperazine] to `CC(C)C(C#N)(CCCN1CCN(CCOc2ccc(F)cc2)CC1)c1ccc(N)cc1` (stereo not drawn) [Example 17, 1-[4-Cyano-5-methyl-4-(4-aminophenyl)hexyl]-4-[2-(4-fluorophenoxy)ethyl]piperazine], the pIC50 falls from 5.09 to < 4.80.

`CC(C)C(C#N)(CCCN1CCN(CCOc2ccc(F)cc2)CC1)c1ccc(C=NO)cc1` (stereo not drawn) [Example 14, 1-[4-Cyano-5-methyl-4-(4-hydroxyiminomethylphenyl)hexyl]-4-[2-(4-fluorophenoxy)ethyl]piperazine] and `CC(C)C(C#N)(CCCN1CCN(CCOc2ccc(F)cc2)CC1)c1ccc(C#N)cc1` (stereo not drawn) [Example 15, 1-[4-Cyano-5-methyl-4-(4-cyanonphenyl)hexyl]-4-[2-(4-fluorophenoxy)ethyl]piperazine] are within 0.2 log units of each other in pIC50: 5.06 for the first, 5.01 for the second.

`CC(C)C(C#N)(CCCN1CCN(CCOc2ccc(F)cc2)CC1)c1ccc([N+](=O)[O-])cc1` (stereo not drawn) [Example 16, 1-[4-Cyano-5-methyl-4-(4-nitrophenyl)hexyl]-4-[2-(4-fluorophenoxy)ethyl]piperazine] and `CC(C)C(C#N)(CCCN1CCN(CCOc2ccc(F)cc2)CC1)c1ccc(N(C)C)cc1` (stereo not drawn) [Example 19, 1-[4-Cyano-5-methyl-4-(4-dimethylaminophenyl)hexyl]-4-[2-(4-fluorophenoxy)ethyl]piperazine] are within 0.2 log units of each other in pIC50: 5.32 for the first, 5.22 for the second.

Going from `CC(C)C(C#N)(CCN1CCN(CCOc2ccc(F)cc2)CC1)c1ccccc1` (stereo not drawn) [Example 25, 1-[(3-Cyano-4-methyl-3-phenyl)pentyl]-4-[2-(4-fluourophenoxy)ethyl]piperazine] to `CC(C)C(C#N)(CCCCN1CCN(CCOc2ccc(F)cc2)CC1)c1ccccc1` (stereo not drawn) [Example 34], the pIC50 rises from 5.01 to 5.42 (0.41 log units).

`CCCC(C#N)(CCCN1CCN(CCOc2ccc(F)cc2)CC1)c1ccccc1` (stereo not drawn) [Example 27, 1-[(4-Cyano-4-phenyl)heptyl]-4-[2-(4-fluorophenoxy)ethyl]piperazine] and `CCCCC(C#N)(CCCN1CCN(CCOc2ccc(F)cc2)CC1)c1ccccc1` (stereo not drawn) [Example 29, 1-[(4-Cyano-4-phenyl)octyl]-4-[2-(4-fluorophenoxy)ethyl]piperazine] are within 0.2 log units of each other in pIC50: 5.34 for the first, 5.40 for the second.

Compared with `CCC(C#N)(CCCN1CCN(CCOc2ccc(F)cc2)CC1)c1ccccc1` (stereo not drawn) [Example 28, 1-[(4-Cyano-4-phenyl)hexyl]-4-[2-(4-fluorophenoxy)ethyl]piperazine], `CC(C)CC(C#N)(CCCN1CCN(CCOc2ccc(F)cc2)CC1)c1ccccc1` (stereo not drawn) [Example 30, 1-[(4-Cyano-6-methyl-4-phenyl)hepthyl]-4-[2-(4-fluorophenoxy)ethyl]piperazine] is 0.40 log units higher in pIC50: 5.14 for the first, 5.54 for the second. The second is the more potent here.

First: CC(C)C(C#N)(CCCN1CCN(CCOc2ccccc2F)CC1)c1ccccc1 (stereo not drawn) [Example 31]
Second: CC(C)C(C#N)(CCCN1CCN(CCOc2ccccc2C#N)CC1)c1ccccc1 (stereo not drawn) [Example 46, 1-[(4-Cyano-5-methyl-4-phenyl)hexyl]-4-[2-(2-cyanophenoxy)ethyl]piperazine]
The pIC50 of the first is 0.23 log units higher: 5.03 for the first, 4.80 for the second. The first is the more potent here.

`CC(C)C(C#N)(CCCN1CCN(CCOc2cccc(F)c2)CC1)c1ccccc1` (stereo not drawn) [Example 32, 1-[(4-Cyano-5-methyl-4-phenyl)hexyl]-4-[2-(3-fluorophenoxy)ethyl]piperazine] and `CC(C)C(C#N)(CCCN1CCN(CCOc2ccc(F)c(F)c2)CC1)c1ccccc1` (stereo not drawn) [Example 35, 1-[(4-Cyano-5-methyl-4-phenyl)hexyl]-4-[2-(3,4-difluorophenoxy)ethyl]piperazine] are within 0.2 log units of each other in pIC50: 5.21 for the first, 5.28 for the second.

Compared with `CC(C)C(C#N)(CCCN1CCN(CCCCCOc2ccc(F)cc2)CC1)c1ccccc1` (stereo not drawn) [Example 33], `CC(C)C(C#N)(CCCN1CCN(CC(O)COc2ccc(F)cc2)CC1)c1ccccc1` (stereo not drawn) [Example 62, 1-[(4-Cyano-5-methyl-4-phenyl)hexyl]-4-[2-hydroxy-3-(4-fluorophenoxy)propyl]piperazine] is 0.41 log units lower in pIC50: 5.47 for the first, 5.06 for the second.

Compared with `CC(C)C(C#N)(CCCN1CCN(CCOc2ccc(F)cc2)CC1)c1ccc(Cl)c(Cl)c1` (stereo not drawn) [Example 37, 1-{[4-Cyano-5-methyl-4-(3,4-dichlorophenyl)hexyl]}-4-[2-(4-fluorophenoxy)ethyl]piperazine], `CSc1ccc(OCCN2CCN(CCCC(C#N)(c3ccccc3)C(C)C)CC2)cc1` (stereo not drawn) [Example 45, 1-[(4-Cyano-5-methyl-4-phenyl)hexyl]-4-[2-(4-methylthiophenoxy)ethyl]piperazine] is 0.23 log units lower in pIC50: 5.57 for the first, 5.34 for the second. The first is the more potent here.

Going from `N#CC(CCCN1CCN(CCOc2ccc(F)cc2)CC1)(c1ccccc1)C1CCCCC1` (stereo not drawn) [Example 38] to `CC(C)C(C#N)(CCCN1CCN(CCOc2ccc(N(C)C)cc2)CC1)c1ccccc1` (stereo not drawn) [Example 43, 1-[(4-Cyano-5-methyl-4-phenyl)hexyl]-4-[2-(4-dimethylaminophenoxy)ethyl]piperazine], the pIC50 falls from 5.40 to 4.89 (0.51 log units). The first is the more potent here.

Going from `COc1ccc(OCCN2CCN(CCCC(C#N)(c3ccccc3)C(C)C)CC2)cc1` (stereo not drawn) [Example 39, 1-[(4-Cyano-5-methyl-4-phenyl)hexyl]-4-[2-(4-methoxyphenoxy)ethyl]piperazine] to `CC(C)C(C#N)(CCCN1CCN(CCSc2ccc(F)cc2)CC1)c1ccccc1` (stereo not drawn) [Example 49, 1-[(4-Cyano-5-methyl-4-phenyl)hexyl]-4-[2-(4-fluorophenylthio)ethyl]piperazine], the pIC50 rises from 5.02 to 5.32 (0.30 log units).

First: CC(C)C(C#N)(CCCN1CCN(CCNc2ccc(F)cc2)CC1)c1ccccc1 (stereo not drawn) [Example 51, 1-[(4-Cyano-5-methyl-4-phenyl)hexyl]-4-[2-(4-fluorophenylamino)ethyl]piperazine]
Second: CC(C)C(C#N)(CCCN1CCN(CCC(=O)c2ccc(F)cc2)CC1)c1ccccc1 (stereo not drawn) [Example 59, 1-[(4-Cyano-5-methyl-4-phenyl)hexyl]-4-[2-(4-fluorobenzoyl)ethyl]piperazine]
The pIC50 of the first is 0.20 log units higher: 5.12 for the first, 4.92 for the second. The first is the more potent here.

Going from `CC(=O)N(CCN1CCN(CCCC(C#N)(c2ccccc2)C(C)C)CC1)Cc1ccccc1` (stereo not drawn) [Example 56, 1-[(4-Cyano-5-methyl-4-phenyl)hexyl]-4-[2-(N-acetyl-N-benzylamino)ethyl]piperazine] to `CC(C)C(C#N)(CCCN1CCN(CCC(O)c2ccc(F)cc2)CC1)c1ccccc1` (stereo not drawn) [Example 60, 1-[(4-Cyano-5-methyl-4-phenyl)hexyl]-4-[-hydroxy-3-(4-flurophenyl)propyl]piperazine], the pIC50 rises from 4.80 to 5.00 (0.20 log units).

`CC(C)C(C#N)(CCCN1CCN(C(=O)COc2ccc(F)cc2)CC1)c1ccccc1` (stereo not drawn) [Example 61, 1-[(4-Cyano-5-methyl-4-phenyl)hexyl]-4-[2-(4-fluorophenoxy)acetyl]piperazine] was tested, and the pIC50 was 4.96.

same assay, conditions: rat cerebral cortex synaptosome, fura 2, KCl stimulation, compound incubated 10 minutes; Hydrochloride

In order of rising pIC50:
1. CC(C)C(C#N)(CCN1CCN(CCOc2ccc(F)cc2)CC1)c1ccccc1 (single isomer, unassigned; (+)) [Example 78, (+)-1-[(3-Cyano-4-methyl-3-phenyl)pentyl]-4-[2-(4-fluorophenoxyl)ethyl]piperazine Hydrochloride]  4.82
2. CC(C)C(C#N)(CCN1CCN(CCOc2ccc(F)cc2)CC1)c1ccccc1 (single isomer, unassigned; (-)) [Example 77, (−)-1-[(3-Cyano-4-methyl-3-phenyl)pentyl]-4-[2-(4-fluorophenoxyl)ethyl]piperazine Hydrochloride]  5.12
3. N#CC(CCCN1CCN(CCOc2ccc(F)cc2)CC1)(c1ccccc1)C1CCCCC1 (single isomer, unassigned; (+)) [Example 80, (+)-1-[(4-Cyano-4-cyclohexyl-4-phenyl)butyl]-4-[2-(4-fluorophenoxyl)ethyl]piperazine Hydrochloride]  5.42
